Positions count from the first letter of the chain named.
How the values were obtained:
Assay type in all cases: biochemical
[1] = target: T1, Zea mays EPSPS variant Zm-T103I (Zea mays, UniProt O24566, T102I); test: Rapid two-rate method for (kcat/KM)*KI, Zm-T103I
T1 construct: native maize plus T103I; E. coli BL21(DE3), Ni-NTA purified
T1 sequence (O24566 with tags, fused parts or gaps T102I): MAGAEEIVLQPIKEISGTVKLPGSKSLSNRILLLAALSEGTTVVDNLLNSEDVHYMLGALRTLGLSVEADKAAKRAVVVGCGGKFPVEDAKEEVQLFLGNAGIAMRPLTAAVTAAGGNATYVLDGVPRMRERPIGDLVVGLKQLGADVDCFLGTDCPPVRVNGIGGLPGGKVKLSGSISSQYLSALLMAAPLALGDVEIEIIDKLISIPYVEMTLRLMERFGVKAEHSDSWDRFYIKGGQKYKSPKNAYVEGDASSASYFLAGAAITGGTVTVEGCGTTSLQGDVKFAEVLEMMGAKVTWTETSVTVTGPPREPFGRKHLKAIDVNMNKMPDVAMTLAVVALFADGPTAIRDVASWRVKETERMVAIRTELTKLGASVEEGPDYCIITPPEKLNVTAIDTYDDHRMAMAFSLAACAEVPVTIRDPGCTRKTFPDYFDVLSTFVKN
Source text: There are several practical considerations for accurately estimating (kcat/KM)*KI with the rapid method. […] 2) The inhibitor concentration must be adjusted so as to obtain a degree of inhibition that minimally amplifies the error in the term v0-vi in Equation 3. If inhibition is too little, v0-vi will be small, and the error in the multiplier vi×v0/(v0-vi) will be large. […] 3) Substrate concentration should be set at the approximate KM of the parental variant(s), subject to the sensitivity of the assay. High substrate concentration obscures sensitivity to the inhibitor and reduces stringency for capturing improvements in KM. Depending on the necessity for speed, there exists opportunity for customizing enzyme and inhibitor concentrations. […] The rapid method was repeated for those and obtained data that correlated better with data obtained by substrate saturation analysis. For screening purposes however, that correlation step is not necessary. Conditions can be set so that variants with a pre-determined minimal fitness level are accurately quantified.
In Table 15, parameters above the heavy line for the rapid method were obtained under standard conditions. For variants shown below the heavy line, the rapid analysis was repeated with enzyme or glyphosate concentrations adjusted as needed to generate sufficient signal within the limits for linear initial rates.

[2] = target: Zea mays EPSPS variant 202R (Zea mays, UniProt O24566, I201R); test: EPSPS reaction rate with or without 10 uM glyphosate, 202R; details: pH 7; read-out: Reaction rate with 10 μM glyph, % no glyph; also: 50 µM PEP and S3P
[3] = target: T2, Zea mays EPSPS variant Zm-H6 (868-H6) with K246G (H6-K246G) (Zea mays, UniProt O24566, A1R/A3W/A415G/A71Q/D401G/E301S/E390G/G101A/I207L/K245G/K83R/L97C/T278A/T360S/T440Q/V437R); test: Substrate saturation kinetic analysis with glyphosate, H6-K246G
T2 construct: 868-H6 plus K246G; E. coli BL21(DE3), Ni-NTA purified
T2 sequence (O24566 with tags, fused parts or gaps A1R/A3W/A71Q/K83R/L97C/G101A/I207L/K245G/T278A/E301S/T360S/E390G/D401G/A415G/V437R/T440Q): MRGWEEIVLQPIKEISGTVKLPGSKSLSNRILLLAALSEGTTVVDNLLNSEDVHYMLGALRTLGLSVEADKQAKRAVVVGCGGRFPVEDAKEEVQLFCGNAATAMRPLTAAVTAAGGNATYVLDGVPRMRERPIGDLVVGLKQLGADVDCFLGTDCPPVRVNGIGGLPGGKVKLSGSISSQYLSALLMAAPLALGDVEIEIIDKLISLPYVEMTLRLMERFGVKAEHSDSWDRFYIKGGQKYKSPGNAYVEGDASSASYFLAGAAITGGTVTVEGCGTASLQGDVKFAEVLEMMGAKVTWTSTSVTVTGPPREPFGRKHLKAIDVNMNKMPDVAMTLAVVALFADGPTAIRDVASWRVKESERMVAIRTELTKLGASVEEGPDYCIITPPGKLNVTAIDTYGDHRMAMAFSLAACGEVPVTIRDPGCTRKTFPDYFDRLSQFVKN

[4] = target: T3, Zea mays EPSPS variant Zm-H6 (868-H6) with A36G (H6-A36G) (Zea mays, UniProt O24566, A1R/A35G/A3W/A415G/A71Q/D401G/E301S/E390G/G101A/I207L/K83R/L97C/T278A/T360S/T440Q/V437R); test: Substrate saturation kinetic analysis with glyphosate, H6-A36G
T3 sequence (O24566 with tags, fused parts or gaps A1R/A3W/A35G/A71Q/K83R/L97C/G101A/I207L/T278A/E301S/T360S/E390G/D401G/A415G/V437R/T440Q): T2 sequence (O24566 with tags, fused parts or gaps A1R/A3W/A71Q/K83R/L97C/G101A/I207L/K245G/T278A/E301S/T360S/E390G/D401G/A415G/V437R/T440Q) with A36G, G246K

[5] = target: T4, Zea mays EPSPS variant Zm-H6 (868-H6) with R61Y (H6-R61Y) (Zea mays, UniProt O24566, A1R/A3W/A415G/A71Q/D401G/E301S/E390G/G101A/I207L/K83R/L97C/R60Y/T278A/T360S/T440Q/V437R); test: Substrate saturation kinetic analysis with glyphosate, H6-R61Y
T4 construct: 868-H6 plus R61Y; E. coli BL21(DE3), Ni-NTA purified
T4 sequence (O24566 with tags, fused parts or gaps A1R/A3W/R60Y/A71Q/K83R/L97C/G101A/I207L/T278A/E301S/T360S/E390G/D401G/A415G/V437R/T440Q): T2 sequence (O24566 with tags, fused parts or gaps A1R/A3W/A71Q/K83R/L97C/G101A/I207L/K245G/T278A/E301S/T360S/E390G/D401G/A415G/V437R/T440Q) with R61Y, G246K

Sequence of Zea mays EPSPS variant 202R (O24566 entry or part of it I201R): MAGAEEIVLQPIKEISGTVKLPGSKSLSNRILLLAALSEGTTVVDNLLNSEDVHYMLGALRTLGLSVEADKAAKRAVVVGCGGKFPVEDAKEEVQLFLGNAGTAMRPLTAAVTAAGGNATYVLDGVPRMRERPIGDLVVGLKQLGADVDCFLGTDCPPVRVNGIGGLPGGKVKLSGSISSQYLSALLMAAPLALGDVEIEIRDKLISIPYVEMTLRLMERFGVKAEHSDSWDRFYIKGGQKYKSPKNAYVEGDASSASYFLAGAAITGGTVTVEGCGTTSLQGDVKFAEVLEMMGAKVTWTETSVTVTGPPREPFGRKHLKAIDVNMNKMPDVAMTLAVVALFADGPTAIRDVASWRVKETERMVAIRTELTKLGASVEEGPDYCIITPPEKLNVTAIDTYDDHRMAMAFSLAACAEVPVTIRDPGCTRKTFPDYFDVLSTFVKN

O=C(O)CNCP(=O)(O)O [glyphosate, N-phosphonomethylglycine]
(kcat/KM)*KI ([1]; rapid method repeated, [E] 0.103 uM, [Gly] 100 uM): 116 | (kcat/KM)*KI ([1]; rapid method, [E] 0.07 uM, [Gly] 1000 uM): 133 | activity at 10 µM [2]: 7.48% | Ki [3]: 284 µM | (kcat/KM)*KI ([3]; substrate saturation, H6-K246G): 2490 | Ki [4]: 454 µM | (kcat/KM)*KI ([4]; substrate saturation, H6-A36G): 3630 | Ki [5]: 309 µM | (kcat/KM)*KI ([5]; substrate saturation, H6-R61Y): 1640

— US11549123B2, “Plant EPSP synthases and methods of use” (PIONEER HI-BRED INTERNATIONAL, INC., priority 2015, dated 2023)
